Where no end group is shown, it is not given here. [ ]: non-standard residue; d: D form. pGlu = O=C1CC[C@@H](C(=O)O)N1; Nle = CCCC[C@H](N)C(=O)O
What follows are substances tested on Peripheral blood mononuclear cells (PBMCs) (assay: Cytokine release assay (multiplex bead assay IL-10, IL-13, IFN-g) and analysis of population coverage). Conditions: cytokine release greater than 50 pg/ml in one or more of IL-13, IL-10, IFN-g; 50 mould allergic subjects; 100 μg/ml; 5 days.
Format: cell-based, human
Protocol: Polypeptides for use in this assay were manufactured at small scale (approximately 10 mg batch size, non-GMP). […] Polypeptides were added to wells in a volume of 100 μl containing polypeptides at a concentration of […], such that subsequent addition of 100 μl of cells would create a final assay concentration of 100 μg/ml.
Peripheral blood mononuclear cells (PBMCs) were isolated from heparinised blood by Ficoll density gradient centrifugation. […] Following stimulation, culture supernatants (100 μl) were harvested for testing by multiplex bead assay.
Multiplex cytokine bead assays (IL-10, IL-13, Interferon gamma (IFN-g)) were performed on thawed culture supernatants according to the manufacturer's instructions. Single measurements were performed for each culture supernatant sample. After completion of the multiplex assay, individual cytokine levels were determined by interpolation from the standard curve generated in the assay. A positive result was taken as a cytokine release of greater than 50 pg/ml in one or more of the IL-13, IL-10 and IFN-g assays. The number of responders out of 50 mould allergic subjects tested was calculated for each polypeptide for the three cytokines.
An analysis of population coverage was carried out to determine what polypeptides could advantageously capture additional responses from the population when included in combination with other peptides. The number of subjects in the population displaying IL-13 or IFN-g responses to at least one, two or three polypeptides included in a given combination was analysed.
An analysis of population coverage was then carried out for additional combinations of polypeptides identified as having preferable pharmaceutical development characteristics. The number of subjects in the population displaying IL-13 or IFN-g responses to at least one, two or three polypeptides included in a given combination was analysed.

Substance | % responders
KQLL-Nle-LSAKR-Nle-KVAFK (KQLL[Nle]LSAKR[Nle]KVAFK) [Alt05A] | 10%
SAKR-Nle-KVAFKLDIEK (SAKR[Nle]KVAFKLDIEK) [Alt06A] | 10%
GWGV-Nle-VSHRSGET (GWGV[Nle]VSHRSGET) [Alt14A] | 56%
KKDAYITLVTLPKSS [Alt03A] | 16%
DITYVATATLPNYSR [Alt02A] | 30%
KKYAGVFVSTGTLGGGK [Alt18] | 50%
IFRSLSKEDPDY [Alt04] | 6%
KRSLLVFAVRSS-Nle-ELRK [Alt27A] | 42%
GWGVMVSHRSGET [Alt14] | 44%
SAKRMKVAFKLDIEK [Alt06] | 16%
KEYQKIFPSIQVI [Alt09] | 6%
LQFTLYRPRDLLS [Alt07] | 10%
IEKLRSNITVQYDI [Alt33] | 44%
GYTGKIKIA-Nle-DVASSE (GYTGKIKIA[Nle]DVASSE) [Alt15A] | 42%
SAFRSIEPELTVY [Alt10] | 42%
KKVSMAIAKAAAAEK [Alt11] | 36%
KTYVATATLPNY [Alt02B] | 22%
GLHFRERKTGSLVIT [Alt21] | 38%
TYYNSLGFNIKATNGGTL [Alt01] | 20%
KQLL-Nle-LSAKRMKVAFK (KQLL[Nle]LSAKRMKVAFK) [Alt05B] | 12%
KYRRVVRAGVKVAQTAR [Alt34A] | 38%
KQLLMLSAKRMKVAFK [Alt05] | 2%
IFRSLSKEEPDY [Alt04A] | 4%
KKVS-Nle-AIAKAAAAEK (KKVS[Nle]AIAKAAAAEK) [Alt11A] | 44%

Substance | % responders
YEKYRRVVRAGVKV [Alt34] | 38%
HEIYVVDRVSAP [Alt30] | 36%
KLWHSMIPMGRDAK [Alt24] | 34%
LAITYNSRAEGAEK [Alt20] | 38%
TLYRPRDLLSLLNE [Alt08] | 10%
KRSLLVFAVRSSMELRK [Alt27] | 40%
WSWKIGPAIATGNT [Alt28] | 52%
KLFQVAETLPQEVLDK [Alt17] | 30%
KDAYITLVTLPKSS [Alt03] | 22%
PyrKLKALAKKTYGQ ([pGlu]KLKALAKKTYGQ) [Alt13] | 40%
SYNVAKAGCIHLAK [Alt22] | 46%
KQLLMLSAKR-Nle-KVAFK [Alt05C] | 16%
KYWLYFYKLHPEK [Alt32] | 36%
SLGFNIKATNGGTLD [Alt01A] | 26%
KLWHSMIP-Nle-GRDAK (KLWHSMIP[Nle]GRDAK) [Alt24C] | 36%
AEVYQKLKALAKKTYGQ [Alt13A] | 86%
AEVYQKLKALAKK [Alt12] | 38%
KDITYVATATLPNY [Alt02] | 36%
SYNVAKAGSIHLAK [Alt22A] | 44%
NWLTLHTAALGPTAK [Alt31] | 58%
KSAFRSIEPELTVYK [Alt10A] | 34%
KLWHS-Nle-IP-Nle-GRDAK (KLWHS[Nle]IP[Nle]GRDAK) [Alt24A] | 40%
GYTGKIKIAMDVASSE [Alt15] | 56%
NEWRDFARVNSISP [Alt23] | 40%

Same assay, conditions: responders out of 50 individuals

Substance | individuals showing a response
AEVYQKLKALAKKTYGQ [Alt13A] | 34/50
